In brackets after ≈: the same amount, converted by molar mass.
Assays:
U87 cells = test: MTS cytotoxicity assay, U87 cells; assay type: cell-based; details: for mean absorbance at 490 nm (MTS): 72 h
Procedure: (§1) For CellTiter 96® Aqueous One Solution Cell Proliferation Assay (MTS) (Promega, Madison, WI, USA), cells were seeded at 5 × 10^3 per well in 96-well plates in quadruplicate together a control with no cells to evaluate the background. After 24 h, the culture medium was removed, and fresh medium containing increasing concentrations of chemical compounds was added to cells. […] DMSO was the vehicle used for dilution of the compounds, and its final concentration on cells was less than 0.2%. Medium-only containing wells were included as controls. Cells were incubated with compounds at different concentrations for 72 h, then, 20 µL of CellTiter 96® AQueous One Solution Reagent was added into each well. After 3 h at 37 °C in a humidified, 5% CO2 atmosphere, the absorbance at 492 nm was recorded using an EZREAD400 (Biochrom, Cambridge, United Kingdom) plate reader. The average 490 nm absorbance from the “no cell” control wells was subtracted from all other values to yield background-corrected absorbance. Dose–response curves and CC50 values have been calculated by plotting the absorbance data as a function of inhibitor concentrations and fitting the data by least-squares nonlinear regression, according to the method of Marquardt–Levenberg, with the computer program GraphPad Prism 6.0.
(§2) Cells were incubated with a scalar concentration of DDX3X inhibitors, and after 72 h of treatment, cell viability was assessed by cytotoxicity assay. […] Compounds 4, 6, and BA103 were also evaluated against BJ primary fibroblasts; compound 4 has a cytotoxicity value of 84.7 μM; on the contrary, compounds 6 and BA103 were not toxic up to 200 μM concentration. This further excluded a possible nonspecific cytotoxic effect. […] Due to its interesting profile, compound BA103 was further tested against additional pulmonary (A549), breast (MDA-MB-231), colorectal (HCT-116), osteosarcoma (U2OS), rhabdomyosarcoma (RD18), GBM (DBTRG, U87, and U251) and medulloblastoma (DAOY) cancer cell lines.
(§3) Figure 5 Cytotoxicity of selected compounds. Compounds were assayed on DU-145, PC3, HepG2, Huh-7, HN6, U251, and U87 cell lines. The concentration of the compound, which reduced the number of viable cells by 50% (CC50), was determined by dose–response curve, and the mean CC50 value for each cell line was calculated by triplicate assays (raw data from U87 and U251 cells with dose–response curves used for the calculation of CC50 in Table S1 and Figure S2).
(§4) Table S1: Raw data of optical absorbance at 490 nm from MTS assay in U87 and U251 cells. Tables contain
(§5) means with SD of at least 5 different values that were used for preparation of figure 5.

U251 cells = test: MTS cytotoxicity assay, U251 cells; assay type: cell-based; details: 72 h
Procedure: as §1, §2, §3, §4, §5

Water solubility assay = assay type: physicochemical; details: 27 °C, thermodynamic from solid, read-out: LogS (aqueous solubility) (converted)
Procedure: Preliminary in vitro ADME analysis was performed to early evaluate the pharmacokinetic (PK) profile of our compounds (Figure 8). Aqueous solubility was calculated by LC-MS-MS analysis. An aliquot of 1 mg of compound was stirred for 24 h at 27 °C in 1 mL of water. The mixture was filtered, and the quantity of solubilized compound was determined. Passive permeability was determined using parallel artificial membrane permeability assay (PAMPA). Microsomal metabolic stability was determined by LC-UV-MS analysis by incubating compounds with human liver microsomes at 37 °C for 60 min (for details, see the Supporting Information). […]
Each solid compound (1 mg) was added to 1 mL of water. The samples were shaked in a shaker bath at room temperature for 24-36 h. The suspensions were filtered through a 0.45 μm nylon filter (Acrodisc), and the solubilized compound determined by LC-MS-MS assay. For each compound the determination was […]
For the quantification was used an LC-MS system consisted of a Varian apparatus (Varian Inc) including a vacuum solvent degassing unit, two pumps (212-LC), a Triple Quadrupole MSD (Mod. 320-LC) mass spectrometer with ES interface and Varian MS Workstation System Control Vers. 6.9 software.
Chromatographic separation was obtained using a Pursuit C18 column (50 x 2.0 mm) (Varian) with 3 μm particle size and gradient elution: eluent A being ACN and eluent B consisting of water. […] The flow rate was 0.2 mL min-1 and injection volume was 5 μL. The instrument operated in positive mode and parameters were: detector 1850 V, drying gas pressure 25.0 psi, desolvation temperature 300.0 °C, nebulizing gas 40.0 psi, needle 5000 V and shield 600 V. Nitrogen was used as nebulizer gas and drying gas. […]
Chromatographic analysis was performed with an Agilent 1100 LC/MSD VL system (G1946C) (Agilent Technologies, Palo Alto, CA) constituted by a vacuum solvent degassing unit, a binary high-pressure gradient pump, an 1100 series UV detector, and an 1100 MSD model VL benchtop mass spectrometer.
Chromatographic separation was obtained using a Varian Polaris C18-A column (150-4.6 mm, 5 μm particle size) and gradient elution: eluent A being ACN and eluent B consisting of water. The analysis started with 2% […]
flow rate was 0.8 mL min-1 and injection volume was 20 μL.
The Agilent 1100 series mass spectra detection (MSD) single-quadrupole instrument was equipped with the orthogonal spray API-ES (Agilent Technologies, Palo Alto, CA). Nitrogen was used as nebulizing and drying gas. The pressure of the nebulizing gas, the flow of the drying gas, the capillary voltage, the fragmentor voltage, and the vaporization temperature were set at 40 psi, 9 L/min, 3000 V, 70 V, and 350 °C, respectively. […]
Spectra were acquired over the scan range m/z 100-1500 using a step size of 0.1 u. […]

Row | SMILES | solubility at 24 h (Water solubility assay) | mean absorbance at 490 nm (MTS) (U87 cells; U87, 0,01 uM) | mean absorbance at 490 nm (MTS) (U87 cells; U87, 0,1 uM) | mean absorbance at 490 nm (MTS) (U87 cells; U87, 1 uM) | mean absorbance at 490 nm (MTS) (U87 cells; U87, 10 uM) | mean absorbance at 490 nm (MTS) (U87 cells; U87, 100 uM) | CC50 (U87 cells; U87, 72 h) | mean absorbance at 490 nm (MTS) (U251 cells; U251, 0,01 uM) | mean absorbance at 490 nm (MTS) (U251 cells; U251, 0,1 uM) | mean absorbance at 490 nm (MTS) (U251 cells; U251, 1 uM) | mean absorbance at 490 nm (MTS) (U251 cells; U251, 10 uM) | mean absorbance at 490 nm (MTS) (U251 cells; U251, 100 uM)
1 | CCCCc1cn(-c2ccc(NC(=O)Nc3ccccc3C(F)(F)F)cc2)nn1 [BA103, 1-(4-(4-Butyl-1H-1,2,3-triazol-1-yl)phenyl)-3-(2-(trifluoromethyl)phenyl)urea] |  | 1,598 | 1,132 | 0,959 | 0,804 | 0,566 | low micromolar range | 2,166 | 2,070 | 1,364 | 0,842 | 0,604
2 | CC(C)CCc1cn(-c2ccc(NC(=O)Nc3cccc4cnccc34)cn2)nn1 [Compound 10, 1-(6-(4-Isopentyl-1H-1,2,3-triazol-1-yl)pyridin-3-yl)-3-(isoquinolin-5-yl)urea] | < 0.0363 µM | 1,863 | 1,379 | 1,165 | 0,858 | 0,467 |  | 1,904 | 2,003 | 1,581 | 1,667 | 0,809
3 | CCCCc1cn(-c2ccc(NC(=O)Nc3ccccc3C)cc2)nn1 [Compound 1, reference compound] |  | 2,027 | 2,018 | 2,000 | 1,584 | 0,465 |  | 2,020 | 1,998 | 1,459 | 1,107 | 0,474

More lines, main results first:

Row | solubility at 24 h (Water solubility assay) | SMILES | mean absorbance at 490 nm (MTS) (U87 cells; U87, 0,01 uM) | mean absorbance at 490 nm (MTS) (U87 cells; U87, 0,1 uM) | mean absorbance at 490 nm (MTS) (U87 cells; U87, 1 uM) | mean absorbance at 490 nm (MTS) (U87 cells; U87, 10 uM) | mean absorbance at 490 nm (MTS) (U87 cells; U87, 100 uM) | CC50 (U87 cells; U87, 72 h) | mean absorbance at 490 nm (MTS) (U251 cells; U251, 0,01 uM) | mean absorbance at 490 nm (MTS) (U251 cells; U251, 0,1 uM) | mean absorbance at 490 nm (MTS) (U251 cells; U251, 1 uM) | mean absorbance at 490 nm (MTS) (U251 cells; U251, 10 uM) | mean absorbance at 490 nm (MTS) (U251 cells; U251, 100 uM)
4 | < 0.0251 µM | CCCCn1nnc(-c2ccc(NC(=O)Nc3ccccc3C(F)(F)F)cc2)n1 [Compound 6, 1-(4-(2-Butyl-2H-tetrazol-5-yl)phenyl)-3-(2-(trifluoromethyl)phenyl)urea] | 1,944 | 1,964 | 2,007 | 1,387 | 0,540 |  | 1,431 | 1,763 | 2,172 | 1,348 | 0,361
5 | < 0.0251 µM | CCCCc1nnc(-c2ccc(NC(=O)Nc3ccccc3C(F)(F)F)cc2)o1 [Compound 3, 1-(4-(5-Butyl-1,3,4-oxadiazol-2-yl)phenyl)-3-(2-(trifluoromethyl)phenyl)urea] | 1,350 | 1,140 | 1,178 | 1,065 | 0,568 |  | 1,298 | 1,025 | 1,098 | 0,593 | 0,217
6 | 0.275 µM (≈ 0.111 µg/mL) | CCCCc1nnc(-c2ccc(NC(=O)Nc3ccccc3C(F)(F)F)cc2)[nH]1 [Compound 4, 1-(4-(5-Butyl-4H-1,2,4-triazol-3-yl)phenyl)-3-(2-(trifluoromethyl)phenyl)urea] | 1,906 | 1,293 | 0,941 | 0,784 | 0,162 |  | 1,499 | 1,513 | 1,627 | 1,482 | 0,502
